Reference: ChEMBL document CHEMBL5465560, “Selectivity Literature for EUbOPEN Chemogenomic Library” (2024)
Blank lines part the entries; values can stand above or below the compound they belong to.

How the values were obtained:
[1] = molecular target: Mitogen-activated protein kinase 1 (Homo sapiens, UniProt P28482); assay: Selectivity interaction (Millipore kinase profiler) EUB0000124b MAPK1; conditions: at 10 µM
[2] = molecular target: Ribosomal protein S6 kinase alpha-3 (Homo sapiens, UniProt P51812); assay: Selectivity interaction (KinomeScan (DiscoverX)) EUB0001049a RPS6KA3; conditions: at 1 µM
[3] = molecular target: Mitogen-activated protein kinase kinase kinase 11 (Homo sapiens) (UniProt Q16584); assay: Selectivity interaction (ActivX KiNativ screen (kinase selectivity in THP-1 cell lysates)) EUB0000639a MAP3K11; assay type: subcellular; conditions: lysate
[4] = molecular target: Phosphatidylinositol 4-kinase beta (Homo sapiens, UniProt Q9UBF8); assay: Selectivity interaction (ActivX KiNativ screen (kinase selectivity in THP-1 cell lysates)) EUB0000639a PI4KB; assay type: subcellular; conditions: lysate
[5] = molecular target: T1, Cyclin-dependent kinase-like 2 (Homo sapiens) (UniProt Q92772); assay: Selectivity interaction (KinomeScan (DiscoverX)) EUB0000595a CDKL2; conditions: at 10 µM
T1 sequence (whole entry): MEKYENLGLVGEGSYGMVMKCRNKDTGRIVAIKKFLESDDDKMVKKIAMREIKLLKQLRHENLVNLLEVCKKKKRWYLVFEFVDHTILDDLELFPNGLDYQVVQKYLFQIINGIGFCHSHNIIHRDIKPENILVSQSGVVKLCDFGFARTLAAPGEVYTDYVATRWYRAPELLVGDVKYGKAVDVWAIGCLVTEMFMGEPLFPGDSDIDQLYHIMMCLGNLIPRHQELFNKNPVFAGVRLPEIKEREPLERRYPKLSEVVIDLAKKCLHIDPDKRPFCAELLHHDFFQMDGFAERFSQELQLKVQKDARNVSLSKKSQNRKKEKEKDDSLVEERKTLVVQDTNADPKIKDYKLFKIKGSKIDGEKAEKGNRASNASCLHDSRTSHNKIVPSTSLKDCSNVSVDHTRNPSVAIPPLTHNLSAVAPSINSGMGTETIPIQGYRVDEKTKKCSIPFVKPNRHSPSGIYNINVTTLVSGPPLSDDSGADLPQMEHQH

[6] = molecular target: T2, Inhibitor of nuclear factor kappa-B kinase subunit beta (Homo sapiens) (UniProt O14920); assay: Selectivity interaction (KinomeScan (DiscoverX)) EUB0000229b IKBKB; conditions: at 10 µM
T2 sequence (whole entry): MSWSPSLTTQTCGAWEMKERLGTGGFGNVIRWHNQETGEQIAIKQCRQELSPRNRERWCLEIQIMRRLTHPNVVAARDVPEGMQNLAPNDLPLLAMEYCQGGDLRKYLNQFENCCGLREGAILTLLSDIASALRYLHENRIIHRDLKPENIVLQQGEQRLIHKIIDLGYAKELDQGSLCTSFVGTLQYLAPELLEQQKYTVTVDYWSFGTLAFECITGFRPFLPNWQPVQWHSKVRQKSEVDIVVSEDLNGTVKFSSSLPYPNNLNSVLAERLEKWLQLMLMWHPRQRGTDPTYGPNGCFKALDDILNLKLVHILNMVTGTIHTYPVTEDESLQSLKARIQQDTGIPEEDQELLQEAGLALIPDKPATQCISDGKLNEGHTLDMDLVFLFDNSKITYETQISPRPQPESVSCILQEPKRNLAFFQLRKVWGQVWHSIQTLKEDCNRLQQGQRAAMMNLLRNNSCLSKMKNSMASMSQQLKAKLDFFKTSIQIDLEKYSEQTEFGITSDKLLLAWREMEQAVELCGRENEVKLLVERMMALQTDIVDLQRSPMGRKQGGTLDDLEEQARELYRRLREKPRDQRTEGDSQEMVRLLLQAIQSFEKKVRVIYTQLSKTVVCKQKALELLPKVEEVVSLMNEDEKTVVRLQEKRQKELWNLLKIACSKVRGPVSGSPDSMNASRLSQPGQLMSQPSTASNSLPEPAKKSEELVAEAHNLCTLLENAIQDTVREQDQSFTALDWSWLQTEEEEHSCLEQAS

[7] = molecular target: T3, Mitogen-activated protein kinase kinase kinase 13 (Homo sapiens) (UniProt O43283); assay: Selectivity interaction (KinomeScan (DiscoverX)) EUB0000618a MAP3K13; conditions: at 10 µM
T3 sequence (whole entry): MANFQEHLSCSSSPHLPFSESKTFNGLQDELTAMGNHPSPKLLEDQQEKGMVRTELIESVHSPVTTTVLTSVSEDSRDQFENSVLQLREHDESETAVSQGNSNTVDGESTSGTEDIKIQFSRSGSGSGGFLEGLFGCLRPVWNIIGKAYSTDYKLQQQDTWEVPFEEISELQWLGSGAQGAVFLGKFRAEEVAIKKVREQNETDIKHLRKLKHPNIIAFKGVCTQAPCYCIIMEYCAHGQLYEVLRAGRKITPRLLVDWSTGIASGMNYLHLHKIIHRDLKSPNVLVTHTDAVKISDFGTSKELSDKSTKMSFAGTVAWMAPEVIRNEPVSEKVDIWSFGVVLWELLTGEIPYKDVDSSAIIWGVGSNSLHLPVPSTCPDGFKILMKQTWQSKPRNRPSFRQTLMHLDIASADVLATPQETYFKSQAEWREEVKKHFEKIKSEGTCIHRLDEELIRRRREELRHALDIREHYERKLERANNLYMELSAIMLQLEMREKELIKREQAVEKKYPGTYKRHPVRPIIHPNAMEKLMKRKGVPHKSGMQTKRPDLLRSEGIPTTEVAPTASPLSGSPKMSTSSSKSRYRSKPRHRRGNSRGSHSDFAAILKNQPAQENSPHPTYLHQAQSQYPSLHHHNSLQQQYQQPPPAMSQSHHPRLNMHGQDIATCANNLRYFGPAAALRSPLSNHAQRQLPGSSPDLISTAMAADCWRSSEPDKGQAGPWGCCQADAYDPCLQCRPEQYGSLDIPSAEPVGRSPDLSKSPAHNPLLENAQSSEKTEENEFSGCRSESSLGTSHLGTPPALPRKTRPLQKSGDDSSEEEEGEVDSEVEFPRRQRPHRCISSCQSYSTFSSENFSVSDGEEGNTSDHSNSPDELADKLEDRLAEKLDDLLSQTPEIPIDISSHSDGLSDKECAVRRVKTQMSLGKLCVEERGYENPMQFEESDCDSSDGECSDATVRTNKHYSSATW

[8] = molecular target: Tyrosine-protein kinase JAK1 (Homo sapiens, UniProt P23458); assay: Selectivity interaction (SelectScreen profiling (Invitrogen)) EUB0000607a JAK1; conditions: at 2 µM
Tyrosine-protein kinase JAK1, sequence (P23458 whole entry): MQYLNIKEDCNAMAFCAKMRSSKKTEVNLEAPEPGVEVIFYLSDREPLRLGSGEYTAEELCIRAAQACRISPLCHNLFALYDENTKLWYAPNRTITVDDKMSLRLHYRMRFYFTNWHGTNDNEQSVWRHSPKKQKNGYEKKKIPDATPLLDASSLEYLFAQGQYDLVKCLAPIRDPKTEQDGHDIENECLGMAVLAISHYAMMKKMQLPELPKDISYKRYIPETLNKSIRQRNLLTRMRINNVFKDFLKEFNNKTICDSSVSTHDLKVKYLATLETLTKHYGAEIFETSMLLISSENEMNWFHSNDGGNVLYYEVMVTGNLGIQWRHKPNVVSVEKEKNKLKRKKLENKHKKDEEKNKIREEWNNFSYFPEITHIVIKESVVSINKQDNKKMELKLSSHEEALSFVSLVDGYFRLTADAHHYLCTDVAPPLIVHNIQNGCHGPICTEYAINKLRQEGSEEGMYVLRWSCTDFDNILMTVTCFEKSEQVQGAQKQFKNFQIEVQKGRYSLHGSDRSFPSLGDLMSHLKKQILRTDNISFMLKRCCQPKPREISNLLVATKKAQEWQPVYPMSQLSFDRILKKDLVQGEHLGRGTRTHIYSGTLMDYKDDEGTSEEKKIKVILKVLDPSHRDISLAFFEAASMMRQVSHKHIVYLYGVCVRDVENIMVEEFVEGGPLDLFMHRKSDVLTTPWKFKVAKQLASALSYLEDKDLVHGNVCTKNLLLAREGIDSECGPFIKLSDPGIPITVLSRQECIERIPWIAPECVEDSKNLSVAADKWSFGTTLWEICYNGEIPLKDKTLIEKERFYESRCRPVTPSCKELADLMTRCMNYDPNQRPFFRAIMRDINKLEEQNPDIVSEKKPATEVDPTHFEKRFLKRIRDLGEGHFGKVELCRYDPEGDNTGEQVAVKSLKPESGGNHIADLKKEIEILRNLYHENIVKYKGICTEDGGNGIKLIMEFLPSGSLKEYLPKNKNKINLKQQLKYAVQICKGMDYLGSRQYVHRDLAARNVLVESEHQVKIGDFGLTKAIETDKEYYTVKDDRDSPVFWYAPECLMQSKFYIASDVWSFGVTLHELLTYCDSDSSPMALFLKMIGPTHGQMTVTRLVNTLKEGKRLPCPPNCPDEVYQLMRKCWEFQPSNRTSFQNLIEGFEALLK

Phosphatidylinositol 4-kinase beta, sequence (Q9UBF8 2-816 limits assumed): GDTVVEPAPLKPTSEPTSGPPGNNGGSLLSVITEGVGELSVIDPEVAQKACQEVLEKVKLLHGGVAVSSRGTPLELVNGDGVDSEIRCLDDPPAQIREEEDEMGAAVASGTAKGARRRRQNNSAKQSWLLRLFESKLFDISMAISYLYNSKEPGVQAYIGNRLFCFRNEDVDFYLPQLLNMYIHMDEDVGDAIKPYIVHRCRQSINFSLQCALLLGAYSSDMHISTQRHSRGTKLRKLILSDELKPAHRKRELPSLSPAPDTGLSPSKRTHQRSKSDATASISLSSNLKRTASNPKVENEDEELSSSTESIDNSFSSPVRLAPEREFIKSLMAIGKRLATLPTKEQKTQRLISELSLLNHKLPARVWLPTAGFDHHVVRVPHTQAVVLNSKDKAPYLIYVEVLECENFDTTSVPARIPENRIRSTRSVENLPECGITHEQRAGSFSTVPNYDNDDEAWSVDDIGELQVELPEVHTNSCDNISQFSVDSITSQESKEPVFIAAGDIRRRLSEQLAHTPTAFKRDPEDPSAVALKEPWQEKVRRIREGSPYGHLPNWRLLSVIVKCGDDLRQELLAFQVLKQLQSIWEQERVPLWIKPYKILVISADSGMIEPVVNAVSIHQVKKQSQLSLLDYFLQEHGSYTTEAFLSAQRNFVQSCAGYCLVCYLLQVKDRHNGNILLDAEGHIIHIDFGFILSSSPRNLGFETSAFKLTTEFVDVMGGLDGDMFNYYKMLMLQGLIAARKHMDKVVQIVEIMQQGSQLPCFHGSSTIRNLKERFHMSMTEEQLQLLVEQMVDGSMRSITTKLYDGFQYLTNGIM
Mitogen-activated protein kinase kinase kinase 11 (Homo sapiens), sequence (Q16584 whole entry, looked up): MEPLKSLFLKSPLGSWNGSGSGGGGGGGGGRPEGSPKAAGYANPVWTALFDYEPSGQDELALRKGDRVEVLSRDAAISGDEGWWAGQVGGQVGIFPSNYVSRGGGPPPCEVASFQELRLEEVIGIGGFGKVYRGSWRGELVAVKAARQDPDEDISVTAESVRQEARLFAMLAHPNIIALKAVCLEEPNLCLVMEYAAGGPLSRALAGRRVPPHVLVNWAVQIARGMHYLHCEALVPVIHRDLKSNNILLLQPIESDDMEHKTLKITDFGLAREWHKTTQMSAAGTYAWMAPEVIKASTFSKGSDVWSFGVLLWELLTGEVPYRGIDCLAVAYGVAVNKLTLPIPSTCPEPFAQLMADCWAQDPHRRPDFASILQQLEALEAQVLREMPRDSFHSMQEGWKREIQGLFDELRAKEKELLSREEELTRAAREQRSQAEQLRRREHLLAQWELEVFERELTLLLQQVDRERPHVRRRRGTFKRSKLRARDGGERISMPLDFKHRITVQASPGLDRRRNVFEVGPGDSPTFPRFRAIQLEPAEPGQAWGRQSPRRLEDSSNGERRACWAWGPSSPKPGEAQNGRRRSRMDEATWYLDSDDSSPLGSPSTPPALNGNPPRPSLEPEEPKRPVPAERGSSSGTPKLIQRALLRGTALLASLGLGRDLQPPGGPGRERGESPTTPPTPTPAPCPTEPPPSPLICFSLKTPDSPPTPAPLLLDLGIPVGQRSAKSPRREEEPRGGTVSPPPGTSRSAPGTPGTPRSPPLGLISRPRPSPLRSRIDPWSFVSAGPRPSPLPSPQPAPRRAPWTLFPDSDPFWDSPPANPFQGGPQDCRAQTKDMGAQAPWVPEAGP
Ribosomal protein S6 kinase alpha-3, sequence (P51812 whole entry): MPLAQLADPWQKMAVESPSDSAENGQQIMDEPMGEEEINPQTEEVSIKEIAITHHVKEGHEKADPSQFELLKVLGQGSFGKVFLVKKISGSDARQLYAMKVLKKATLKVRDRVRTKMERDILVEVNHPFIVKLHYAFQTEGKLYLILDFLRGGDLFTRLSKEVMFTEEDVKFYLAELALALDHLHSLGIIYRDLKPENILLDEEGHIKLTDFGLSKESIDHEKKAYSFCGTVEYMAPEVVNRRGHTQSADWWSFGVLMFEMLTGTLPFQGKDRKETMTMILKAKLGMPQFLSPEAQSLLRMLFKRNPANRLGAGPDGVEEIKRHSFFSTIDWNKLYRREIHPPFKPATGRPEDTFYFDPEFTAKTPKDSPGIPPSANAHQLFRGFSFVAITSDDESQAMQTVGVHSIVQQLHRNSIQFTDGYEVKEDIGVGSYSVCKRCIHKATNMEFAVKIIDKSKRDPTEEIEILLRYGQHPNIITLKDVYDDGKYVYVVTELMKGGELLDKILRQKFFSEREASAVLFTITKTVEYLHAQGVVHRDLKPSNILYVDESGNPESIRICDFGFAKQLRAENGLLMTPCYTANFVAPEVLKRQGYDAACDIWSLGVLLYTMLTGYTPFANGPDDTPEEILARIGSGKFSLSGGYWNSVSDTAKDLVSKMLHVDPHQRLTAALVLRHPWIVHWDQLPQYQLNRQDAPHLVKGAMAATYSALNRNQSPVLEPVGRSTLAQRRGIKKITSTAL
Mitogen-activated protein kinase 1, sequence (P28482 whole entry): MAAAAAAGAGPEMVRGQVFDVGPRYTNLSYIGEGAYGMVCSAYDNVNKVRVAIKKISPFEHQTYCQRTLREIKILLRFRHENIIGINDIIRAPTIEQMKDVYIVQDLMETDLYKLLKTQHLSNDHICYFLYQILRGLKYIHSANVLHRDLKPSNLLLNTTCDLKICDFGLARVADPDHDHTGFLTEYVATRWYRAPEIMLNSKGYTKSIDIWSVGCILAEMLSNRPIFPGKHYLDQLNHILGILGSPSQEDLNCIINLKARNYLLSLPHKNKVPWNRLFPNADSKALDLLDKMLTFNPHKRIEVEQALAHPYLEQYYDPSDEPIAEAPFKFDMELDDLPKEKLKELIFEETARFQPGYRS

% of control [1]: 86%
SMILES: CC(=O)Nc1cccc(-n2c(=O)n(C3CC3)c(=O)c3c(Nc4ccc(I)cc4F)n(C)c(=O)c(C)c32)c1

SMILES: COc1cc(Nc2nc(C)cc(-c3cnn4nc(OC)ccc34)n2)cc(C(F)(F)F)c1
% of control [2]: 98%

% of inhibition ([3]; at 0.01 µM): 3.8% | % of inhibition ([3]; at 0.04 µM): -0.9% | % of inhibition ([3]; at 0.2 µM): 5% | % of inhibition ([3]; at 1 µM): 8.5% | % of inhibition ([3]; at 5 µM): 17% | % of inhibition ([4]; at 0.01 µM): -20.4% | % of inhibition ([4]; at 0.04 µM): 12.3% | % of inhibition ([4]; at 0.2 µM): 15.1% | % of inhibition ([4]; at 1 µM): 7.7% | % of inhibition ([4]; at 5 µM): -1.3%
SMILES: CC[C@@H]1[C@H](F)C(=O)N[C@@H]1COc1nccc2cc(C(N)=O)c(OC)cc12 [ZIMLOVISERTIB]

SMILES: COCC(=O)NC/C=C/c1ccc2ncnc(Nc3ccc(Oc4ccc(C)nc4)c(C)c3)c2c1 [CP-724714]
% of control [5]: 91%

SMILES: COc1cc(N(C)c2ccnc3ccc(C(F)(F)F)cc23)cc(OC)c1OC
% binding [6]: 94%

SMILES: O[C@H]1CC[C@H](Nc2ncc3nc(Nc4c(F)cc(F)cc4F)n([C@H]4CCOC4)c3n2)CC1
% of control [7]: 100%

SMILES: CNC(=O)Nc1ccc(-c2nc(N3CC4CCC(C3)O4)c3cnn(C4CCC5(CC4)OCCO5)c3n2)cc1
% of inhibition [8]: 5%
